Laboratory results published in US20060063755A1, “Loxapine analogs and methods of use thereof” (priority 2004, published 2006).
pKi: −log10 of the molar value. Where “and” joins values, the source holds several entries; their conditions need not be identical. Equal entries are not always repeated.

Experiments:
M3 muscarinic receptor = molecular target: T1, M3 muscarinic receptor (Homo sapiens, UniProt P20309); assay: M3 binding assay, [3H]-scopolamine N-methyl chloride, CHO cells; details: human recombinant
T1 construct: purchased PerkinElmer, Inc., Wellesley, Mass; host or cells: CHO cells
T1 sequence (P20309 whole entry): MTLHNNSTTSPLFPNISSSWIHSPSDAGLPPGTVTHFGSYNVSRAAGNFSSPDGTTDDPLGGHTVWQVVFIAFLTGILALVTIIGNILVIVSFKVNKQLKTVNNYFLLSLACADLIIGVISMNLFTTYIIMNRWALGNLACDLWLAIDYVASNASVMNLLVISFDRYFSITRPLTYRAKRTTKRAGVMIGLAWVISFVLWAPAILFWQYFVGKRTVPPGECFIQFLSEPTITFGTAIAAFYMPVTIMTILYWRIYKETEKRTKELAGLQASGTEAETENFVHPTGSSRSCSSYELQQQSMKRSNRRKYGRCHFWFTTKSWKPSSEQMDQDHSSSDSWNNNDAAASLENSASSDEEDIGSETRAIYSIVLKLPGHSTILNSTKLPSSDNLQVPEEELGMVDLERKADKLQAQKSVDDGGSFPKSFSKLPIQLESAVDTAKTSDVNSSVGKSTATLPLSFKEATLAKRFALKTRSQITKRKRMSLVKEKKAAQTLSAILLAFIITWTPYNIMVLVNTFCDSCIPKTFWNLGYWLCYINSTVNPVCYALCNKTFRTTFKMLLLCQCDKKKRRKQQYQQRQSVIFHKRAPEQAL

D2 receptors = D2 receptors (Homo sapiens, UniProt P14416); assay: Dopamine D2 binding assay (human)
Sequence of D2 receptors (P14416 whole entry): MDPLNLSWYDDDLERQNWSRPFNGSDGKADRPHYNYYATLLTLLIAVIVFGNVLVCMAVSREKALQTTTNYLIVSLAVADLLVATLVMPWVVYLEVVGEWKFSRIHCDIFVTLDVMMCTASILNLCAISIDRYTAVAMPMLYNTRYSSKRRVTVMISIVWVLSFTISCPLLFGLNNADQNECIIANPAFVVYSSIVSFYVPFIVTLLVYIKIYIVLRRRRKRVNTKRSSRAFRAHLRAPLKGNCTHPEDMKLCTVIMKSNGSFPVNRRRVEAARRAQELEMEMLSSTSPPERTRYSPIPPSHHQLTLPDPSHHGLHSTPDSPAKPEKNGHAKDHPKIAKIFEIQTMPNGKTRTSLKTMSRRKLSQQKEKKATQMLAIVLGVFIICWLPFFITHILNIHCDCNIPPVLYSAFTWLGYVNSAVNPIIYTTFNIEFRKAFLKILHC
Experimental: Binding assays were performed using the disclosed sleep-inducing agents and derivatives selected from those listed in Table 1 in competitive binding assays with known standards for the H1 histamine receptor, and the M1, M2, and M3 muscarinic receptors, alpha 1 and alpha 2 receptors, and D1 and D2 receptors. […]

alpha 1 receptors = assay: Alpha 1 receptor binding assay; details: read-out: Ki Alpha1
Experimental: (§1) Binding assays were performed using the disclosed sleep-inducing agents and derivatives selected from those listed in Table 1 in competitive binding assays with known standards for the H1 histamine receptor, and the M1, M2, and M3 muscarinic receptors, alpha 1 and alpha 2 receptors, and D1 and D2 receptors.

H1 histamine receptor = molecular target: T2, H1 histamine receptor (Bos taurus, UniProt P30546); assay: H1 competitive binding assay, [3H]pyrilamine, bovine cerebellar membranes; details: bovine cerebellar membrane
T2 construct: the receptors were obtained from bovine cerebellar membrane tissue; from tissue; host or cells: bovine cerebellar membranes
T2 sequence (P30546 whole entry): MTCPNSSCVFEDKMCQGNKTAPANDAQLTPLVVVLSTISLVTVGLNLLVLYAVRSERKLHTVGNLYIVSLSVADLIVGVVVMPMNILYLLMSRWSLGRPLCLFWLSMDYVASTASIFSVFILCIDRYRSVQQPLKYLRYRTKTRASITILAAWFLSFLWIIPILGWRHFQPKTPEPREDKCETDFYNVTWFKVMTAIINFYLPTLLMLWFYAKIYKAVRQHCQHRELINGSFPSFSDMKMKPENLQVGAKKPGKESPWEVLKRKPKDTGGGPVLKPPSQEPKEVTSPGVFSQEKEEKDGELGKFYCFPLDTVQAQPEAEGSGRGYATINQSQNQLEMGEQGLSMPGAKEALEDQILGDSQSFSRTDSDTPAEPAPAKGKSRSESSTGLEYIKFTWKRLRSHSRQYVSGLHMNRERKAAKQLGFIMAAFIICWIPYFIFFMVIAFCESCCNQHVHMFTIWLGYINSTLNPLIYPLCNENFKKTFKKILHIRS

alpha 2 receptors = assay: Alpha 2 receptor binding assay; details: read-out: Ki Alpha2
Experimental: as §1

M2 muscarinic receptor = molecular target: T3, M2 muscarinic receptor (Homo sapiens, UniProt P08172); assay: M2 binding assay, [3H]-scopolamine N-methyl chloride, CHO cells; details: human recombinant
T3 construct: purchased PerkinElmer, Inc., Wellesley, Mass; host or cells: CHO cells
T3 sequence (P08172 1-466): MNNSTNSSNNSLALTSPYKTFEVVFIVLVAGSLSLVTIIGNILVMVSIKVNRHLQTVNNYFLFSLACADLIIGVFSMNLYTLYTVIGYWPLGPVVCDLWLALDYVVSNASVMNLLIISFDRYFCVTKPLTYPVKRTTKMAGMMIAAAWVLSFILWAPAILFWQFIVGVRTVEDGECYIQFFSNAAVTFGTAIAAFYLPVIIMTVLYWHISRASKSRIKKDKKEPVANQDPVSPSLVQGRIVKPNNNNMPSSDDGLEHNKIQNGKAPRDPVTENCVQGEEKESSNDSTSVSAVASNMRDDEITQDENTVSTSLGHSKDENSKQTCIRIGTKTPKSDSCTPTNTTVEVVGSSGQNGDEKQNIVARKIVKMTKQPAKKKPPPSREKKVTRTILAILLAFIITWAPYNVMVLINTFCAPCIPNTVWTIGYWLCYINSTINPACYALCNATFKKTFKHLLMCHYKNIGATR

Dopamine, D1 = Dopamine, D1 (Homo sapiens, UniProt P21728); assay: Dopamine D1 (human recombinant) binding assay
Sequence of Dopamine, D1 (P21728 whole entry): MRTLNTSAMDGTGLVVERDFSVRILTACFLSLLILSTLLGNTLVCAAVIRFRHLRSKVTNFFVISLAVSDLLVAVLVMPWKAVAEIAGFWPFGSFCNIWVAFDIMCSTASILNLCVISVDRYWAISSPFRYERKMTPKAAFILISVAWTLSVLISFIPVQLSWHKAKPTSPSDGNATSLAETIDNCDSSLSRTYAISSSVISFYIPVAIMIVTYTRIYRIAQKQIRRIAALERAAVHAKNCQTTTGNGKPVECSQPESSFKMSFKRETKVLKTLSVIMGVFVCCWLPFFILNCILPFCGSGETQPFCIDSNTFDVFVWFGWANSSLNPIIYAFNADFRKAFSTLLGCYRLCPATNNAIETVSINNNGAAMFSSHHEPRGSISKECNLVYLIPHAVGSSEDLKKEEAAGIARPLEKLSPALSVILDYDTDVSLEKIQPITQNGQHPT
Experimental: as §1
Dopamine, D1 (human recombinant) binding assay was performed according to published procedures. See, e.g., Jarvie, et al. J. Recept Res., 13(1-4): 573-90 (1993); and Billard, et al. Life Sciences, 35(18): 1885-93 (1984), with modifications

M1 muscarinic receptor = molecular target: T4, M1 muscarinic receptor (Homo sapiens, UniProt P11229); assay: M1 binding assay, [3H]-scopolamine N-methyl chloride, CHO cells; details: human recombinant
T4 construct: purchased PerkinElmer, Inc., Wellesley, Mass; host or cells: CHO cells
T4 sequence (P11229 1-460): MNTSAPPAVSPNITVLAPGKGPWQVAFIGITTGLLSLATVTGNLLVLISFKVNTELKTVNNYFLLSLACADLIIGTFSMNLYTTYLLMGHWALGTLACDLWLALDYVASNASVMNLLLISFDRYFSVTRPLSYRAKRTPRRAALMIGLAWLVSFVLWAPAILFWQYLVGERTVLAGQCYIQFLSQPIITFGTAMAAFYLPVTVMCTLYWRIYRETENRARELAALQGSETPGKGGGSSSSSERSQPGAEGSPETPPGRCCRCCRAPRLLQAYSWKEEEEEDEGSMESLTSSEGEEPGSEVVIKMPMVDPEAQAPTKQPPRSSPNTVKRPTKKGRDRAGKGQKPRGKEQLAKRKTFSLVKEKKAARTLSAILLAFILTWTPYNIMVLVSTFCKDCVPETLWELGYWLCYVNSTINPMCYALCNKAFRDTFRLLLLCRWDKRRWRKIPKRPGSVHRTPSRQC

hERG channel = hERG channel (Homo sapiens, UniProt Q12809); assay: hERG channel current block, whole cell recording in HEK293 cells; assay type: cell-based; details: HEK293 cells expressing hERG
Sequence of hERG channel (Q12809 whole entry): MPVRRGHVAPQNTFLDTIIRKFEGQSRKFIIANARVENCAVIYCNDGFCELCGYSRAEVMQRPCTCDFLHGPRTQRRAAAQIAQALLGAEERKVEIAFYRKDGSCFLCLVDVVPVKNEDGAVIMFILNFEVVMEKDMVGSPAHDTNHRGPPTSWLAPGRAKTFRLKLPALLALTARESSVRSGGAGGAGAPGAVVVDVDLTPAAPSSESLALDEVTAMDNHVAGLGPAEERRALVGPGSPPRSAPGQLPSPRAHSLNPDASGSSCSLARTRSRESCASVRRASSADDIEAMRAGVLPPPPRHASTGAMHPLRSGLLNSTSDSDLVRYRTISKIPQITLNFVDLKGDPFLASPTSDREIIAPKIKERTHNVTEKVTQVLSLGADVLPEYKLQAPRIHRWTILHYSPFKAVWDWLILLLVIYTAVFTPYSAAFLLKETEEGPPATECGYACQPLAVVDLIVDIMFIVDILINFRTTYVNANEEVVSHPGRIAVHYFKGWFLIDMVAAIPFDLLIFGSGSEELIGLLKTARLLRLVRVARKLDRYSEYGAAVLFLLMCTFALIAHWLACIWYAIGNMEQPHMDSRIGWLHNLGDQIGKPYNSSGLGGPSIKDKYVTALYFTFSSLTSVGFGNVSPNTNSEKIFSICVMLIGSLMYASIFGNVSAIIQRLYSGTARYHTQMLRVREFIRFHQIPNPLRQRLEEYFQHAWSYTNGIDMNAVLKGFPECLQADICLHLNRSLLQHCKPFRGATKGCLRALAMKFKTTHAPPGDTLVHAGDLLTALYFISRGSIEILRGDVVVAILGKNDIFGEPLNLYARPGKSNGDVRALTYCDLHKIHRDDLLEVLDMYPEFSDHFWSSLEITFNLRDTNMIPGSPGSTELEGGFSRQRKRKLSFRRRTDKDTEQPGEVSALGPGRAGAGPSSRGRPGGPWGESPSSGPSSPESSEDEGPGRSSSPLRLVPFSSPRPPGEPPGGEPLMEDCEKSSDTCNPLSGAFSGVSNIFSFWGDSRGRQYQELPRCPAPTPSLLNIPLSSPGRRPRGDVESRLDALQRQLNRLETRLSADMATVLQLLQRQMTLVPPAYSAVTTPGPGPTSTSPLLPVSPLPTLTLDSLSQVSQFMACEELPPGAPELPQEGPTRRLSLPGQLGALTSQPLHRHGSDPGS
Experimental: Other in vitro selection criteria for loxapine analogs of the invention includes hERG binding.
(Brown and Rampe (2000)).
In one embodiment of the HERG assay, the positive control (i.e., reference compound) is terfenadine (Sigma, St. Louis Mo.), which has been shown, at a concentration of 60 nM, to block HERG current by approximately 75%. Test compounds are delivered in HEPES-buffered physiological saline (HB-PS)+0.1% dimethyl sulfoxide (DMSO).
Clin. Exp. Allergy 29 Suppl 3, 174-181.
If the final DMSO concentration must be greater than 0.3%, to reach a specified test article concentration, a separate vehicle control test with an n>2 was performed at the highest final DMSO concentration.
Each cell acted as its own control. […] One concentration of the positive control article (60 nM terfenadine) was applied to two cells (n≧2).

| Structure (SMILES) | pKi (M3 muscarinic receptor) | pKi (D2 receptors) | pKi (alpha 1 receptors) | pKi (H1 histamine receptor) | pKi (alpha 2 receptors) | pKi (M2 muscarinic receptor) | pKi (Dopamine, D1) | pKi (M1 muscarinic receptor) | hERG at 10 micromolar (% blocking of the hERG channel) (hERG channel) |
| --- | --- | --- | --- | --- | --- | --- | --- | --- | --- |
| CC(C)(CN1CCN(C2=Nc3ccccc3Oc3ccc(Br)cc32)CC1)C(=O)O [Compound 8] | < 5.00 | 6.36 | < 5.00 | 7.93 | < 5.00 | < 5.00 | 5.47 | < 5.00 | 49% |
| COc1ccc2c(c1)Oc1ccccc1N=C2N1CCN(CC(C)(C)C(=O)O)CC1 [Compound 39] | < 5.00 | < 5.00 | < 5.00 | 7.01 | < 5.00 | < 5.00 | < 5.00 | < 5.00 | 61.40% |
| Cc1ccc2c(c1)Oc1ccc(C)cc1C(N1CCN(CC(C)(C)C(=O)O)CC1)=N2 [Compound 31] | < 5.00 | 5.66 | < 5.00 | 6.62 and 6.47 and 6.61 | < 5.00 |  | 6.06 | < 5.00 | 3.80% |
| O=C(O)C1(CN2CCN(C3=Nc4ccccc4Oc4ccc(Cl)cc43)CC2)CC1 [Compound 7] | < 5.00 | 6.65 | < 5.00 | 6.66 | < 5.00 | < 5.00 | 5.76 | < 5.00 | 42.8% |
| COc1ccc2c(c1)Oc1ccc(OC)cc1C(N1CCN(CC(C)(C)C(=O)O)CC1)=N2 [Compound 35] | < 5.00 | < 5.00 | < 5.00 |  | < 5.00 |  | < 5.00 | < 5.00 | 0.10% |
| COc1ccc2c(c1)Oc1ccccc1C(N1CCN(CC(C)(C)C(=O)O)CC1)=N2 [Compound 32] | < 5.00 | < 5.00 | < 5.00 | 5.42 | < 5.00 | < 5.00 | < 5.00 | < 5.00 | 1.60% |
| Cc1ccc2c(c1)Oc1ccc(Br)cc1N=C2N1CCN(CC(C)(C)C(=O)O)CC1 [Compound 44] | < 5.00 |  | < 5.00 | 7.38 | < 5.00 |  |  | < 5.00 | 65.90% |
| CC(C)(CN1CCN(C2=Nc3ccccc3Oc3ccc(O)cc32)CC1)C(=O)O [Compound 14] | < 5.00 | < 5.00 | < 5.00 | 6.55 | < 5.00 | < 5.00 | 6.03 | < 5.00 | 0.30% |
| COc1ccc2c(c1)Oc1ccc(Br)cc1N=C2N1CCN(CC(C)(C)C(=O)O)CC1 [Compound 86] |  |  |  |  |  |  |  |  | 86.90% |
| COc1ccc2c(c1)C(N1CCN(CC(C)(C)C(=O)O)CC1)=Nc1ccc(Br)cc1O2 [Compound 72] | < 5.00 | 6.33 | < 5.00 |  |  |  | 6.29 | < 5.00 | 10.90% |
| Cc1ccc2c(c1)N=C(N1CCN(CC(C)(C)C(=O)O)CC1)c1cc(C)ccc1O2 [Compound 20] | < 5.00 | 5.80 | 5.71 | 7.11 | < 5.00 | < 5.00 | 5.71 | < 5.00 | 5.30% |
| CC(C)(CCN1CCN(C2=Nc3ccccc3Oc3ccc(Cl)cc32)CC1)C(=O)O [Compound 6] |  | 7.02 | 5.56 | 7.86 | < 5.00 |  | 5.14 |  | 27% |
| COc1ccc2c(c1)N=C(N1CCN(CC(C)(C)C(=O)O)CC1)c1cc(C)ccc1O2 [Compound 56] | < 5.00 | < 5.00 | < 5.00 | 6.93 | < 5.00 |  | < 5.00 | < 5.00 | 0.30% |
| COc1ccc2c(c1)C(N1CCN(CC(C)(C)C(=O)O)CC1)=Nc1cc(F)ccc1O2 [Compound 48] | < 5.00 |  | < 5.00 | 7.57 |  |  |  | < 5.00 |  |
| COc1ccc2c(c1)N=C(N1CCN(CC(C)(C)C(=O)O)CC1)c1ccccc1O2 [Compound 21] | < 5.00 | < 5.00 | < 5.00 | 7.24 | < 5.00 | < 5.00 | < 5.00 | < 5.00 | 0% |
| O=C(O)C1(CN2CCN(C3=Nc4ccccc4Oc4ccc(Br)cc43)CC2)CC1 [Compound 9] | < 5.00 | 7.27 | < 5.00 | 7.44 | < 5.00 | < 5.00 | 5.95 | < 5.00 | 59% |
| COc1ccc2c(c1)C(N1CCN(CC(C)(C)C(=O)O)CC1)=Nc1ccc(C)cc1O2 [Compound 58] | < 5.00 | 5.39 | < 5.00 |  | < 5.00 | < 5.00 | 5.70 | < 5.00 | 0.20% |
| Cc1ccc2c(c1)Oc1ccccc1N=C2N1CCN(CC(C)(C)C(=O)O)CC1 [Compound 46] | < 5.00 | < 5.00 | < 5.00 | 7.73 | < 5.00 |  | < 5.00 | < 5.00 | 20.40% |
| Cc1ccc2c(c1)N=C(N1CCN(CC(C)(C)C(=O)O)CC1)c1ccc(C)cc1O2 [Compound 52] | < 5.00 | < 5.00 | < 5.00 | 7.26 | < 5.00 | < 5.00 |  | < 5.00 | 19.80% |
| COc1ccc2c(c1)C(N1CCN(CC(C)(C)C(=O)O)CC1)=Nc1cc(C)ccc1O2 [Compound 54] |  | 5.97 | 5.92 | 7.39 | 5.24 | < 5.00 | 5.30 | < 5.00 | 6.10% |
| CC(C)(CN1CCN(C2=Nc3cc(Br)ccc3Oc3ccccc32)CC1)C(=O)O [Compound 17] | < 5.00 | 6.05 | 5.70 | 7.92 |  | < 5.00 | 5.46 | < 5.00 | 30.10% |
| COc1ccc2c(c1)N=C(N1CCN(CC(C)(C)C(=O)O)CC1)c1ccc(OC)cc1O2 [Compound 42] | < 5.00 | < 5.00 | < 5.00 | 5.95 | < 5.00 |  | < 5.00 | < 5.00 | 5.80% |
